Our source for the Ki values is US8232269B2, “Amide compounds useful in therapy” (Pfizer Inc., priority 2008, dated 2012).

Where only a bound is given, the exact number is not on record here.

This assay has as its target T1, Progesterone Receptor (PR) (Homo sapiens, UniProt P06401).
T1 construct: endogenous in cells; host or cells: T47D human breast mammary carcinoma cells
T1 sequence (P06401 1-933): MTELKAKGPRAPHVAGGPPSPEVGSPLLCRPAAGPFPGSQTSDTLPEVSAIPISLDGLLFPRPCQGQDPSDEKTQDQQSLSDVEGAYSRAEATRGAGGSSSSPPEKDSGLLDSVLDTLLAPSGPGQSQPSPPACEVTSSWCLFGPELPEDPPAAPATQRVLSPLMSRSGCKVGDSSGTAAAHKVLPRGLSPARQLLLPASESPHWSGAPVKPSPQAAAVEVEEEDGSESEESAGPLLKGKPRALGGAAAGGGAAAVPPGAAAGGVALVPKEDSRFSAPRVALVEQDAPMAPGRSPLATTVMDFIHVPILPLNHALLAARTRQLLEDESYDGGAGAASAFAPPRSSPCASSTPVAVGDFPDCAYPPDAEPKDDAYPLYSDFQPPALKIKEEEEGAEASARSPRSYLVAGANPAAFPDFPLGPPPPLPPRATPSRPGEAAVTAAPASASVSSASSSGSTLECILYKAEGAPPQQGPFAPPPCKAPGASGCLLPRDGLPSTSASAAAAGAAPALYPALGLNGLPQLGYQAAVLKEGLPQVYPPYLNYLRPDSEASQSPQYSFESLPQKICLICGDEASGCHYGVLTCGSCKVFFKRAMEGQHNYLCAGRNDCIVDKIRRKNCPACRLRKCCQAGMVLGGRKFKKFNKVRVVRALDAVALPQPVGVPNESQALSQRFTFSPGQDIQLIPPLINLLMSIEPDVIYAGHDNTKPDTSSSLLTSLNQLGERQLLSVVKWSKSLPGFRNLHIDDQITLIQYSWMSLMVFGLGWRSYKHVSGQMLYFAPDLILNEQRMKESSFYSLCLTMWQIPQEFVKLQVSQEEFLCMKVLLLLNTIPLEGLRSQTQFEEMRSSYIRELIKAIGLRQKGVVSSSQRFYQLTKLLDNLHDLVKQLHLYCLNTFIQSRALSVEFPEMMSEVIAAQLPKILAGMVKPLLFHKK
The experiment in a line: In vitro functional assay for progesterone receptor (PR) antagonists: inhibition of progesterone-induced alkaline phosphatase expression in T47D cells. It counts as cell-based. To be noted: antagonist format, 5 nM progesterone, Ki calculated from IC50 with the Cheng-Prusoff equation. The text has this:
1.0 In vitro Functional Assay for Progesterone Receptor (PR) Antagonists, Agonists and Modulators
The assay for PR antagonism takes advantage of the extensively reported modulation of alkaline phosphatase (AP) expression in human breast T47D mammary carcinoma cells {Beck et al., D. P. (1993). The progesterone antagonist RU486 acquires agonist activity upon stimulation of cAMP signalling pathways. Proc Natl Acad Sci USA 90, 4441-4445; Fensome et al. (2002). New progesterone receptor antagonists: 3,3-disubstituted-5-aryloxindoles. Bioorg Med Chem Lett 12, 3487-3490; Zhang et al., (2002a). 6-Aryl-1,4-dihydro-benzo d1,3oxazin-2-ones: a novel class of potent, selective, and orally active nonsteroidal progesterone receptor antagonists. Journal of Medicinal Chemistry 45, 4379-4382; Zhang et al., (2003). Novel 6-aryl-1,4-dihydrobenzo d oxazine-2-thiones as potent, selective, and orally active nonsteroidal progesterone receptor agonists. Bioorganic & Medicinal Chemistry Letters 13, 1313-1316; Zhang et al., (2002b). Potent nonsteroidal progesterone receptor agonists: synthesis and SAR study of 6-aryl benzoxazines. Bioorganic & Medicinal Chemistry Letters 12, 787-790; Zhang, Z. et al., (2000). In vitro characterization of trimegestone: a new potent and selective progestin. Steroids 65, 637-643}. […] In the absence of progesterone any agonist activity is also observed as an induction of AP activity. By running the assay in two formats (+/−progesterone (P4)), compounds behaving as PR antagonists, agonists, partial agonists or modulators with mixed agonist/antagonist activity can be identified.
Briefly, T47D cells are grown by propagating in DMEM with phenol red+10% FCS+2 mM Glutamine at 37° C./5% CO2. At 70-80% confluence, the media is exchanged for phenol red free DMEM+5% CS-FCS (Assay media). Cells are incubated overnight in assay media then harvested and frozen in assay media containing 10% DMSO at 1.5e7 cells/mL in 2 mL aliquots using a Planer and immediately stored in liquid nitrogen. Vials are removed from liquid nitrogen storage and immediately thawed in a water bath at 37° C. The cell suspension is added dropwise to 20 mL of assay media, then the tube centrifuged at 1000 rpm for 4 minutes, the supernatant is discarded and the pellet re-suspended in 20 mL assay media. T47D cells are then plated at 8750 cells/well in 35 μL assay media in sufficient white solid 384 well TC plates for the assay. For the agonist format assay a further 10 μL of assay media is added to each well. These plates are then cultured for 3-6 hours at 37° C./5% CO2 before compound addition.
Test substances are prepared by in 100% DMSO, half log concentrations from 4 mM in 384 well plates 5 μL/well (referred to here as ‘grandmother plates’). Progesterone is 100 μM made up in ethanol and PBS (i.e. add 1 mL ethanol to progesterone initially to help dissolving) and stored in 0.5-1 mL aliquots at −20° C.
Using a multidrop (Thermolabsystems), 60 μL/well of buffer is added to a 384 well plate—this will be the ‘mother plate’. _Add 45 μL well buffer to grandmother plate using the multidrop (=400 μM 10% DMSO dilution). Mixed and spun to remove air bubbles. • 20 μL is taken from the grandmother plate (400 μM 10% DMSO) and added to the mother plate (=100 μM 2.5% DMSO). Mixed and spun to remove air bubbles Preparation of Max/Min:
Antagonist Min: (Checker Pattern on Plate Map) 1 μM RU-486 (FAC 0.1 μM) • 50 μL of 0.2 mM RU-486 • 10 mL Diluent Addition of Test Substance to Cell Plates • The PlateMate Plus was used to add 5 μL MAX/MIN to cell plates • Then 5 μL test substances are added from the mother plate (after removing max/min PlateMate tips: columns 1 and 24)
Addition of Agonist (5 nM Progesterone FAC) for Antagonist Format Only
25 nM progesterone in assay media is prepared from 100 μM stock (12.5 μL progesterone/50 mL media), from which 10 μL per well is transferred to the assay plate using the PlateMate Plus (already containing cells & compound). […]
Take `CC(C)C(=O)N1CC[C@@H](NC(=O)c2c(C3CC3)c(-c3ccc(C#N)cc3)nn2C(C)C)C1` [Example 11, 3-(4-Cyanophenyl)-4-cyclopropyl-N-[(3R)-1-isobutyrylpyrrolidin-3-yl]-1-isopropyl-1H-pyrazole-5-carboxamide]: the Ki was 18.6 nM.
Consider `Cc1c(-c2ccc(C#N)cc2)nn(C2CCOC2)c1C(=O)NCC(C)(C)O` (single isomer, unassigned) [Example 80 Ent 1, 3-(4-Cyanophenyl)-N-(2-hydroxy-2-methylpropyl)-4-methyl-1-(tetrahydrofuran-3-yl)-1H-pyrazole-5-carboxamide], for which the Ki is 57.1 nM.
For `CC(C)n1nc(-c2ccc(C#N)cc2)c(C2CC2)c1C(=O)NC1CC1` [Example 58, 3-(4-Cyanophenyl)-N,4-dicyclopropyl-1-isopropyl-1H-pyrazole-5-carboxamide] the value was 6.87 nM; for `CCc1c(-c2ccc(C#N)cc2)nn(C(C)CC)c1C(=O)NC1CC1` (racemic) [Example 104, (+/−)-1-sec-Butyl-3-(4-cyanophenyl)-N-cyclopropyl-4-ethyl-1H-pyrazole-5-carboxamide], 17.8 nM; for `Cc1c(-c2ccc(C#N)cc2)nn(C2CCOC2)c1C(=O)NC[C@H](C)O` (single isomer, unassigned) [Example 78 Diast 2], 49.4 nM.
Next, `CCNC(=O)c1c(C2CC(F)(F)C2)c(-c2ccc(C#N)cc2)nn1C(C)C` [Example 100, 3-(4-Cyanophenyl)-4-(3,3-difluorocyclobutyl)-N-ethyl-1-isopropyl-1H-pyrazole-5-carboxamide]: 151 nM; `Cc1c(-c2ccc(C#N)cc2)nn(C2CCC2)c1C(=O)NCC1CC1` [Example 69, 3-(4-Cyanophenyl)-1-cyclobutyl-N-(cyclopropylmethyl)-4-methyl-1H-pyrazole-5-carboxamide]: 3.4 nM.
Next, `CC(C)n1nc(-c2ccc(C#N)cc2)c(Cl)c1C(=O)NC[C@H](C)O` [Example 129]: 13.2 nM; `CCNC(=O)CNC(=O)c1c(C2CC2)c(-c2ccc(C#N)cc2)nn1C(C)C` [Example 42, 3-(4-Cyanophenyl)-4-cyclopropyl-N-[2-(ethylamino)-2-oxoethyl]-1-isopropyl-1H-pyrazole-5-carboxamide]: 27.3 nM; `CCNC(=O)c1c(Cc2ccccc2)c(-c2ccc(C#N)cc2)nn1C(C)C` [Example 97, 4-Benzyl-3-(4-cyanophenyl)-N-ethyl-1-isopropyl-1H-pyrazole-5-carboxamide]: 399 nM.
As to `COCCNC(=O)c1c(C2CC2)c(-c2ccc(C#N)cc2)nn1C(C)C` [Example 59, 3-(4-Cyanophenyl)-4-cyclopropyl-1-isopropyl-N-(2-methoxyethyl)-1H-pyrazole-5-carboxamide], the Ki was 7.84 nM.
Consider `CC(C)n1nc(-c2ccc(C#N)cc2)c(C2CC2)c1C(=O)N[C@@H]1CCN(C(=O)OC(C)(C)C)C1` [Example 5, tert-Butyl (3R)-3-({[3-(4-cyanophenyl)-4-cyclopropyl-1-isopropyl-1H-pyrazol-5-yl]carbonyl}amino)-pyrrolidine-1-carboxylate], for which the Ki was 7.92 nM.
Take `CCNC(=O)c1c(C)c(-c2ccc(C#N)cc2)nn1C1CCOC1` (single isomer, unassigned) [Example 76 Ent 2, 3-(4-Cyanophenyl)-N-ethyl-4-methyl-1-(tetrahydrofuran-3-yl)-1H-pyrazole-5-carboxamide]: the Ki was 147 nM.
Next, `CC(C)n1nc(-c2ccc(C#N)cc2)c(C2CC2)c1C(=O)NC[C@H]1CCCO1` [Example 53, 3-(4-Cyanophenyl)-4-cyclopropyl-1-isopropyl-N-[(2R)-tetrahydrofuran-2-ylmethyl]-1H-pyrazole-5-carboxamide]: 7.38 nM; `Cc1c(-c2ccc(C#N)cc2)nn(C2CCOC2)c1C(=O)NCC(C)(C)O` (single isomer, unassigned) [Example 80 Ent 2, 3-(4-Cyanophenyl)-N-(2-hydroxy-2-methylpropyl)-4-methyl-1-(tetrahydrofuran-3-yl)-1H-pyrazole-5-carboxamide]: over 733 nM.
As to `CCNC(=O)c1c(C#N)c(-c2ccc(C#N)cc2)nn1C(C)C` [Example 89, 4-Cyano-3-(4-cyanophenyl)-N-ethyl-1-isopropyl-1H-pyrazole-5-carboxamide], the Ki was 7.75 nM.
Next, `Cc1cc(-c2nn(C(C)C)c(C(=O)NC(C)C)c2C#N)ccc1C#N` [Example 123]: 5.49 nM; `CNC(=O)c1c(C2CC2)c(-c2ccc(C#N)cc2)nn1C(C)C` [Example 46, 3-(4-Cyanophenyl)-4-cyclopropyl-1-isopropyl-N-methyl-1H-pyrazole-5-carboxamide]: over 2010 nM; `CC(C)C(=O)N1CC(NC(=O)c2c(C3CC3)c(-c3ccc(C#N)cc3)nn2C(C)C)C1` [Example 16, 3-(4-Cyanophenyl)-4-cyclopropyl-N-(1-isobutyrylazetidin-3-yl)-1-isopropyl-1H-pyrazole-5-carboxamide]: 42.8 nM.
For the compound `CC(C)n1nc(-c2ccc(C#N)cc2)c(Cc2ccccc2)c1C(=O)NC1CC1` [Example 96, 4-Benzyl-3-(4-cyanophenyl)-N-cyclopropyl-1-isopropyl-1H-pyrazole-5-carboxamide], the Ki is 374 nM.
Take `CC(C)n1nc(-c2ccc(C#N)cc2)c(C2CC2)c1C(=O)NC1CCS(=O)(=O)C1` (racemic) [Example 57, (+/−)-3-(4-Cyanophenyl)-4-cyclopropyl-N-(1,1-dioxidotetrahydro-3-thienyl)-1-isopropyl-1H-pyrazole-5-carboxamide]: the Ki is 7.43 nM.
For `CNC(=O)c1c(C#N)c(-c2ccc(C#N)cc2)nn1C(C)C` [Example 92, 4-Cyano-3-(4-cyanophenyl)-1-isopropyl-N-methyl-1H-pyrazole-5-carboxamide] the value was 8.84 nM; for `CC(C)n1nc(-c2ccc(C#N)cc2)c(C#N)c1C(=O)NC[C@@H](C)O` [Example 133], 19.3 nM.

As a reminder, the Ki is a measure of affinity in units of concentration, obtained from inhibition or displacement.
